In article PMC7419507, “In vitro Cas9-assisted editing of modular polyketide synthase genes to produce desired natural product derivatives” (Nature Communications, 2020):
“And” between values parts separate entries of the source, which are not always exact repeats. Equal entries are not always repeated.

Key:
Type in all cases: cell-based
[1] = test system: human ovarian adenocarcinoma SKOV-3 cells; assay: Cytotoxicity assay (CellTiter-Glo, 72 h), SKOV-3; settings: raw replicate data
Experimental: (§1) Jurkat cells were cultured in RPMI1640 medium supplemented with 10% foetal bovine serum, penicillin (50 U/ml), streptomycin (50 μg/ml), and Glutamax. SKOV-3 cells were cultured in DMEM medium supplemented with 10% fetal bovine serum, penicillin (50 U/ml), and streptomycin (50 μg/ml). MESO-1 cells were cultured in RPMI1640 medium supplemented with 10% fetal bovine serum, penicillin (50 U/ml), and streptomycin (50 μg/ml). All cell lines were seeded in a 384-well plate at a density of 1000 cells/well in 20 μl of media and incubated at 37 °C in a humidified incubator with 5% CO2. After 4 h, 2-fold dilution samples resolved in DMSO were added to the cell culture at the concentration of 0.5% (0.1 μl) and incubated for 72 h. Cell viabilities were measured using a CellTiter-Glo luminescent cell viability assay and EnVision multilabel plate reader.

T lymphoma Jurkat cells = assay: Cytotoxicity assay (CellTiter-Glo, 72 h), Jurkat; settings: raw data (replicates)
Experimental: as §1

[2] = test system: malignant pleural mesothelioma MESO-1 cells; assay: Cytotoxicity assay (CellTiter-Glo, 72 h), MESO-1; settings: raw replicate data
Experimental: as §1

FKBP12 and mTOR = target: T1, FKBP12 and mTOR (Homo sapiens, UniProt P42345+P62942); assay: Fluoppi analysis: induction of FKBP12-mTOR complex formation in transfected HeLa cells; settings: for Foci intensity: raw data, one replicate per line
T1 construct: host or cells: HeLa cells
T1 sequence (P42345 2025-2114 limits assumed): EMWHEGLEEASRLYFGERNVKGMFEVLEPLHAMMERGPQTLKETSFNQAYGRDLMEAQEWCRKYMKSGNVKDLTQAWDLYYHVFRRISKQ
T1 sequence (P62942 whole entry): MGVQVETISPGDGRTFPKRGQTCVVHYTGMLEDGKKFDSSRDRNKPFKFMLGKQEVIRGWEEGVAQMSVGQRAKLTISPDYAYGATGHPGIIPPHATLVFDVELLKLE
Experimental: Fluoppi harbours a tetrameric fluorescent protein hAG tag and an oligomeric assembly helper Ash tag to create detectable fluorescent foci in cells when there are interactions between two proteins fused to each tag[32].
HeLa cells were maintained in DMEM (Fujifilm Wako, Osaka, Japan) supplemented with 10% FBS (Thermo Fisher Scientific, MA, USA) and 1% of Penicillin-Streptomycin (Thermo Fisher Scientific) in a humidified incubator with 5% CO2 at 37 °C. Harvested cells were plated at 1 × 10^6 cells/well in 6-well plate and incubated for 6 h. Then each 1.25 µg of phAG-mTOR and pAsh-FKBP12 (Medical and Biological Laboratories Co., Ltd., Aichi, Japan) was co-transfected with Lipofectamine 2000 reagent (Thermo Fisher Scientific) overnight. Next day, transfected cells were harvested and seeded in 384-well optical-bottom microplate (PerkinElmer, MA, USA) at a density of 3000 cells/well. After the 24 h incubation at 37 °C, cells were treated with different concentrations of compounds for 1 h. Cells were then fixed with 4% paraformaldehyde and stained with 1 µg/ml of Hoechst33342 (Thermo Fisher Scientific). Cell images of 9 visual fields/well were acquired with ×20 objective lens in Opera Phenix High-Content Screening System (PerkinElmer) and analysed by Harmony4.9 software (PerkinElmer). Because protein-protein interactions are quantified by measuring the aggregation of fluorescent elements in foci, fluorescent intensity in foci was normalised by total fluorescent intensity in each cell. EC50 values were calculated using TIBCO Spotfire 10.3 software (PerkinElmer).

[3] = test system: Jurkat, SKOV-3 and MESO-1 cells; assay: Cytotoxicity assay, statements for all tested cell lines together; settings: against the tested cell lines (Jurkat, SKOV-3, MESO-1)
Experimental: as §1

PPI-inducing (binding enhancing) activity between FKBP12 and mTOR compared with rapamycin (1), in words (FKBP12 and mTOR; Fluoppi): relatively weaker activities
EC50 (FKBP12 and mTOR; Fluoppi, HeLa cells, 1 h treatment, three independent biological replicates, read-out: EC50, induction of the formation of FKBP-mTOR complex): 21 nM
Foci intensity (FKBP12 and mTOR; conc 9.53674e-5 uM): 0.02938 and 0.02062 and 0.01935
Foci intensity (FKBP12 and mTOR; conc 0.000190735 uM): 0.01089 and 0.04735 and 0.006372
Foci intensity (FKBP12 and mTOR; conc 0.00038147 uM): 0.02158 and 0.01349 and 0.009009
Foci intensity (FKBP12 and mTOR; conc 0.000762939 uM): 0.009136 and 0.02959 and 0.01473
Foci intensity (FKBP12 and mTOR; conc 0.00152588 uM): 0.01663 and 0.006313 and 0.01798
Foci intensity (FKBP12 and mTOR; conc 0.00305176 uM): 0.01047 and 0.01326 and 0.01713
Foci intensity (FKBP12 and mTOR; conc 0.00610352 uM): 0.03111 and 0.03528 and 0.05091
Foci intensity (FKBP12 and mTOR; conc 0.012207 uM): 0.1191 and 0.0902 and 0.07426
Foci intensity (FKBP12 and mTOR; conc 0.0244141 uM): 0.2308 and 0.2676 and 0.239
Foci intensity (FKBP12 and mTOR; conc 0.0488281 uM): 0.3046 and 0.3291 and 0.3775
Foci intensity (FKBP12 and mTOR; conc 0.0976562 uM): 0.4136 and 0.3574 and 0.3612
Foci intensity (FKBP12 and mTOR; conc 0.195312 uM): 0.3726 and 0.4258 and 0.4147
Foci intensity (FKBP12 and mTOR; conc 0.390625 uM): 0.4457 and 0.3806 and 0.4256
Foci intensity (FKBP12 and mTOR; conc 0.78125 uM): 0.3848 and 0.4238 and 0.4902
Foci intensity (FKBP12 and mTOR; conc 1.5625 uM): 0.4004 and 0.3924 and 0.3797
Foci intensity (FKBP12 and mTOR; conc 3.125 uM): 0.374 and 0.3995 and 0.4137
Foci intensity (FKBP12 and mTOR; conc 6.25 uM): 0.4751 and 0.3772 and 0.3106
Foci intensity (FKBP12 and mTOR; conc 12.5 uM): 0.4864 and 0.3577 and 0.3572
Foci intensity (FKBP12 and mTOR; conc 25 uM): 0.403 and 0.3428 and 0.3243
Foci intensity (FKBP12 and mTOR; conc 50 uM): 0.4648 and 0.4194 and 0.3824
Compound: COC1CC2CCC(C)C(O)(O2)C(=O)C(=O)N2CCCCC2C(=O)OC(C(C)CC2CCC(O)C(OC)C2)CC=C(C)C(O)CC(=O)C(C)CC(C)C=CC=CC=C1C (centres unmarked) [Compound 10]
SKOV3 viability (%) ([1]; conc 9.53674e-5 uM): 102.2% and 102.6% and 104.7%
SKOV3 viability (%) ([1]; conc 0.000190735 uM): 89.9% and 100.2% and 100.4%
SKOV3 viability (%) ([1]; conc 0.00038147 uM): 103.4% and 105.0% and 103.9%
SKOV3 viability (%) ([1]; conc 0.000762939 uM): 100.5% and 98.4% and 99.4%
SKOV3 viability (%) ([1]; conc 0.00152588 uM): 106.0% and 105.3%
SKOV3 viability (%) ([1]; conc 0.00305176 uM): 103.5% and 101.1% and 97.3%
SKOV3 viability (%) ([1]; conc 0.00610352 uM): 103.4% and 105.6% and 104.9%
SKOV3 viability (%) ([1]; conc 0.012207 uM): 103.7% and 98.9% and 95.6%
SKOV3 viability (%) ([1]; conc 0.0244141 uM): 104.7% and 103.8% and 99.6%
SKOV3 viability (%) ([1]; conc 0.0488281 uM): 100.2% and 99.1% and 100.0%
SKOV3 viability (%) ([1]; conc 0.0976562 uM): 104.8% and 104.3% and 100.1%
SKOV3 viability (%) ([1]; conc 0.195312 uM): 95.4% and 97.0% and 94.0%
SKOV3 viability (%) ([1]; conc 0.390625 uM): 97.7% and 103.0% and 102.9%
SKOV3 viability (%) ([1]; conc 0.78125 uM): 93.0% and 94.9% and 92.8%
SKOV3 viability (%) ([1]; conc 1.5625 uM): 96.7% and 99.9% and 92.6%
SKOV3 viability (%) ([1]; conc 3.125 uM): 90.3% and 92.8% and 92.7%
SKOV3 viability (%) ([1]; conc 6.25 uM): 95.7% and 97.5% and 89.4%
SKOV3 viability (%) ([1]; conc 12.5 uM): 93.5% and 97.4% and 91.5%
SKOV3 viability (%) ([1]; conc 25 uM): 91.8% and 89.5% and 94.8%
SKOV3 viability (%) ([1]; conc 50 uM): 48.8% and 50.2% and 51.9%
Jurkat viability (%) (T lymphoma Jurkat cells; conc 9.53674e-5 uM): 100.6% and 99.4% and 103.1%
Jurkat viability (%) (T lymphoma Jurkat cells; conc 0.000190735 uM): 101.6% and 102.5% and 98.5%
Jurkat viability (%) (T lymphoma Jurkat cells; conc 0.00038147 uM): 98.4% and 99.9%
Jurkat viability (%) (T lymphoma Jurkat cells; conc 0.000762939 uM): 100.1% and 103.3% and 99.4%
Jurkat viability (%) (T lymphoma Jurkat cells; conc 0.00152588 uM): 103.7% and 95.3% and 102.7%
Jurkat viability (%) (T lymphoma Jurkat cells; conc 0.00305176 uM): 99.4% and 102.2% and 96.7%
Jurkat viability (%) (T lymphoma Jurkat cells; conc 0.00610352 uM): 103.1% and 102.2% and 98.6%
Jurkat viability (%) (T lymphoma Jurkat cells; conc 0.012207 uM): 106.4% and 103.4% and 103.7%
Jurkat viability (%) (T lymphoma Jurkat cells; conc 0.0244141 uM): 106.5% and 107.7% and 103.0%
Jurkat viability (%) (T lymphoma Jurkat cells; conc 0.0488281 uM): 101.8% and 99.9% and 103.2%
Jurkat viability (%) (T lymphoma Jurkat cells; conc 0.0976562 uM): 106.2% and 107.8% and 101.3%
Jurkat viability (%) (T lymphoma Jurkat cells; conc 0.195312 uM): 97.6% and 99.7% and 92.3%
Jurkat viability (%) (T lymphoma Jurkat cells; conc 0.390625 uM): 92.6% and 88.6% and 95.1%
Jurkat viability (%) (T lymphoma Jurkat cells; conc 0.78125 uM): 82.4% and 83.0% and 85.1%
Jurkat viability (%) (T lymphoma Jurkat cells; conc 1.5625 uM): 79.7% and 82.1% and 77.6%
Jurkat viability (%) (T lymphoma Jurkat cells; conc 3.125 uM): 74.2% and 71.9% and 69.9%
Jurkat viability (%) (T lymphoma Jurkat cells; conc 6.25 uM): 76.5% and 74.7% and 74.5%
Jurkat viability (%) (T lymphoma Jurkat cells; conc 12.5 uM): 63.4% and 64.1% and 59.5%
Jurkat viability (%) (T lymphoma Jurkat cells; conc 25 uM): 29.8% and 32.1% and 29.9%
Jurkat viability (%) (T lymphoma Jurkat cells; conc 50 uM): 2.7% and 3.5% and 3.4%
MESO1 viability (%) ([2]; conc 9.53674e-5 uM): 100.8% and 105.3% and 105.4%
MESO1 viability (%) ([2]; conc 0.000190735 uM): 95.7% and 102.9% and 100.7%
MESO1 viability (%) ([2]; conc 0.00038147 uM): 104.6% and 103.5% and 110.6%
MESO1 viability (%) ([2]; conc 0.000762939 uM): 99.4% and 101.6% and 106.3%
MESO1 viability (%) ([2]; conc 0.00152588 uM): 103.6% and 107.9% and 110.6%
MESO1 viability (%) ([2]; conc 0.00305176 uM): 103.7% and 97.7% and 102.1%
MESO1 viability (%) ([2]; conc 0.00610352 uM): 102.5% and 110.7% and 106.5%
MESO1 viability (%) ([2]; conc 0.012207 uM): 100.1% and 112.2% and 102.4%
MESO1 viability (%) ([2]; conc 0.0244141 uM): 100.1% and 101.2% and 104.6%
MESO1 viability (%) ([2]; conc 0.0488281 uM): 99.1% and 97.8% and 101.7%
MESO1 viability (%) ([2]; conc 0.0976562 uM): 102.3% and 104.8% and 99.5%
MESO1 viability (%) ([2]; conc 0.195312 uM): 92.8% and 95.2% and 98.3%
MESO1 viability (%) ([2]; conc 0.390625 uM): 100.3% and 99.6% and 94.3%
MESO1 viability (%) ([2]; conc 0.78125 uM): 88.5% and 91.5% and 91.8%
MESO1 viability (%) ([2]; conc 1.5625 uM): 91.5% and 95.3% and 90.6%
MESO1 viability (%) ([2]; conc 3.125 uM): 85.5% and 90.0% and 83.9%
MESO1 viability (%) ([2]; conc 6.25 uM): 92.1% and 98.3% and 96.6%
MESO1 viability (%) ([2]; conc 12.5 uM): 90.4% and 90.6% and 90.0%
MESO1 viability (%) ([2]; conc 25 uM): 77.8% and 73.6% and 73.2%
MESO1 viability (%) ([2]; conc 50 uM): 53.8% and 51.9% and 42.0%
Concentration at which cytotoxic activities were shown [3]: over 10 µM
